Results on 43 substances are retold here after patent US10526389B2, “Peptides and combinations of peptides for use in immunotherapy against lung cancer, including NSCLC and other cancers” (Immatics Biotechnologies GmbH, priority 2015, dated 2020).

For this assay, the system named is CD8+ T cells. Briefly: In vitro immunogenicity of HLA-A*02 peptides (CD8+ T-cell priming with aAPCs, multimer staining). The assay is classed as cell-based, human. An excerpt:
In order to obtain information regarding the immunogenicity of the TUMAPs of the present invention, the inventors performed investigations using an in vitro T-cell priming assay based on repeated stimulations of CD8+ T cells with artificial antigen presenting cells (aAPCs) loaded with peptide/MHC complexes and anti-CD28 antibody.
In order to perform in vitro stimulations by artificial antigen presenting cells loaded with peptide-MHC complex (pMHC) and anti-CD28 antibody, the inventors first isolated CD8+ T cells from fresh HLA-A*02 leukapheresis products via positive selection using CD8 microbeads (Miltenyi Biotec, Bergisch-Gladbach, Germany) of healthy donors obtained from the University clinics Mannheim, Germany, after informed consent.
PBMCs and isolated CD8+ lymphocytes were incubated in T-cell medium (TCM) until use consisting of RPMI-Glutamax (Invitrogen, Karlsruhe, Germany) supplemented with 10% heat inactivated human AB serum (PAN-Biotech, Aidenbach, Germany), 100 U/ml Penicillin/100 μg/ml Streptomycin (Cambrex, Cologne, Germany), 1 mM sodium pyruvate (CC Pro, Oberdorla, Germany), 20 μg/ml Gentamycin (Cambrex). 2.5 ng/ml IL-7 (PromoCell, Heidelberg, Germany) and 10 U/ml IL-2 (Novartis Pharma, Nurnberg, Germany) were also added to the TCM at this step.
Generation of pMHC/anti-CD28 coated beads, T-cell stimulations and readout was performed in a highly defined in vitro system using four different pMHC molecules per stimulation condition and 8 different pMHC molecules per readout condition.
The purified co-stimulatory mouse IgG2a anti human CD28 Ab 9.3 (Jung et al., 1987) was chemically biotinylated using Sulfo-N-hydroxysuccinimidobiotin as recommended by the manufacturer (Perbio, Bonn, Germany). Beads used were 5.6 μm diameter streptavidin coated polystyrene particles (Bangs Laboratories, Illinois, USA).
800.000 beads/200 μl were coated in 96-well plates in the presence of 4×12.5 ng different biotin-pMHC, washed and 600 ng biotin anti-CD28 were added subsequently in a volume of 200 μl. Stimulations were initiated in 96-well plates by co-incubating 1×10^6 CD8+ T cells with 2×10^5 washed coated beads in 200 μl TCM supplemented with 5 ng/ml IL-12 (PromoCell) for 3 days at 37° C. Half of the medium was then exchanged by fresh TCM supplemented with 80 U/ml IL-2 and incubating was continued for 4 days at 37° C. This stimulation cycle was performed for a total of three times. For the pMHC multimer readout using 8 different pMHC molecules per condition, a two-dimensional combinatorial coding approach was used as previously described (Andersen et al., 2012) with minor modifications encompassing coupling to 5 different fluorochromes. Finally, multimeric analyses were performed by staining the cells with Live/dead near IR dye (Invitrogen, Karlsruhe, Germany), CD8-FITC antibody clone SK1 (BD, Heidelberg, Germany) and fluorescent pMHC multimers. For analysis, a BD LSRII SORP cytometer equipped with appropriate lasers and filters was used. Peptide specific cells were calculated as percentage of total CD8+ cells. Evaluation of multimeric analysis was done using the FlowJo software (Tree Star, Oregon, USA). In vitro priming of specific multimer+CD8+ lymphocytes was detected by comparing to negative control stimulations.

Turning to ABCA13-001 (ILFEINPKL), the “in vitro immunogenicity: donors” value is “++++ (>= 70% = ++++)” and the “in vitro immunogenicity: wells” value is listed as “+ (<20% = +)”.

Take ABCA13-002 (ALDENLHQL): the “in vitro immunogenicity: donors” value is on record as “+++ (50%-69% = +++)” and the “in vitro immunogenicity: wells” value is on record as “+ (<20% = +)”.

In the case of “ADAM8-001 (KLLTEVHAA; listed as Homo sapiens)”, the “in vitro immunogenicity: donors” value is “++++ (>= 70% = ++++)” and the “in vitro immunogenicity: wells” value is given as “+ (<20% = +)”.

For “AIVDKVPSV (listed as Homo sapiens) [SEQ ID No. 143]”, the “in vitro immunogenicity: donors” value is “+++ (50%-69% = +++)” and the “in vitro immunogenicity: wells” value was “+ (<20% = +)”.

“ALLNILSEV (listed as Homo sapiens) [SEQ ID No. 8]”: the “in vitro immunogenicity: donors” value is reported as “++++ (>= 70% = ++++)” and the “in vitro immunogenicity: wells” value was “++ (20%-49% = ++)”.

As to “ALTSTLISV (listed as Homo sapiens) [SEQ ID No. 5]”, the “in vitro immunogenicity: donors” value is “++++ (>= 70% = ++++)” and the “in vitro immunogenicity: wells” value is “+ (<20% = +)”.

Regarding “ALVDHTPYL (listed as Homo sapiens) [SEQ ID No. 136]”, the “in vitro immunogenicity: donors” value is listed as “++++ (>= 70% = ++++)” and the “in vitro immunogenicity: wells” value is reported as “+ (<20% = +)”.

As for “ALVQDLAKA (listed as Homo sapiens) [SEQ ID No. 131]”, the “in vitro immunogenicity: donors” value is on record as “++++ (>= 70% = ++++)” and the “in vitro immunogenicity: wells” value is “++ (20%-49% = ++)”.

With “ATP-001 (SLHFLILYV; listed as Homo sapiens)”, the “in vitro immunogenicity: donors” value is “++++ (>= 70% = ++++)” and the “in vitro immunogenicity: wells” value is recorded as “++++ (>= 70% = ++++)”.

As to BNC1-001 (VLFPNLKTV), the “in vitro immunogenicity: donors” value is “++++ (>= 70% = ++++)” and the “in vitro immunogenicity: wells” value is recorded as “+ (<20% = +)”.

Take BUB1B-001 (KIVDFSYSV): the “in vitro immunogenicity: donors” value is recorded as “++++ (>= 70% = ++++)” and the “in vitro immunogenicity: wells” value was “++ (20%-49% = ++)”.

As for “CCNB2-001 (ILVDWLVQV; listed as Homo sapiens)”, the “in vitro immunogenicity: donors” value was “++++ (>= 70% = ++++)” and the “in vitro immunogenicity: wells” value is “++ (20%-49% = ++)”.

Take “CDK4-001 (TLWYRAPEV; listed as Homo sapiens)”: the “in vitro immunogenicity: donors” value is reported as “++++ (>= 70% = ++++)” and the “in vitro immunogenicity: wells” value is on record as “++++ (>= 70% = ++++)”.

As for “CERC-001 (KLSWDLIYL; listed as Homo sapiens)”, the “in vitro immunogenicity: donors” value is “++++ (>= 70% = ++++)” and the “in vitro immunogenicity: wells” value was “+++ (50%-69% = +++)”.

On to COG4-001 (SLVAVELEKV), for which the “in vitro immunogenicity: donors” value was “++++ (>= 70% = ++++)” and the “in vitro immunogenicity: wells” value is on record as “+ (<20% = +)”.

As to “COL6A3-002 (FLLDGSANV; listed as Homo sapiens)”, the “in vitro immunogenicity: donors” value was “++++ (>= 70% = ++++)” and the “in vitro immunogenicity: wells” value is “++ (20%-49% = ++)”.

As to “COL6A3-003 (NLLDLDYEL; listed as Homo sapiens)”, the “in vitro immunogenicity: donors” value is recorded as “++++ (>= 70% = ++++)” and the “in vitro immunogenicity: wells” value was “+ (<20% = +)”.

For the substance “COL6A3-007 (FLYDVVKSL; listed as Homo sapiens)”, the “in vitro immunogenicity: donors” value is “++++ (>= 70% = ++++)” and the “in vitro immunogenicity: wells” value is listed as “+ (<20% = +)”.

As for “COL6A3-010 (KLLPYIVGV; listed as Homo sapiens)”, the “in vitro immunogenicity: donors” value is reported as “++++ (>= 70% = ++++)” and the “in vitro immunogenicity: wells” value is listed as “++ (20%-49% = ++)”.

For the substance “COL12A1-002 (FLVDGSWSV; listed as Homo sapiens)”, the “in vitro immunogenicity: donors” value is reported as “++ (20%-49% = ++)” and the “in vitro immunogenicity: wells” value is “+ (<20% = +)”.

Turning to “CSNK2A2-001 (VLSSGLTAA; listed as Homo sapiens)”, the “in vitro immunogenicity: donors” value is “+ (<20% = +)” and the “in vitro immunogenicity: wells” value is “+ (<20% = +)”.

With “DIO2-001 (ALYDSVILL; listed as Homo sapiens)”, the “in vitro immunogenicity: donors” value was “+ (<20% = +)” and the “in vitro immunogenicity: wells” value is given as “+ (<20% = +)”.

Turning to “DKC-001 (ALFQRPPLI; listed as Homo sapiens)”, the “in vitro immunogenicity: donors” value is recorded as “++++ (>= 70% = ++++)” and the “in vitro immunogenicity: wells” value was “++ (20%-49% = ++)”.

In the case of “DONSON-001 (VLYPHEPTAV; listed as Homo sapiens)”, the “in vitro immunogenicity: donors” value is recorded as “++++ (>= 70% = ++++)” and the “in vitro immunogenicity: wells” value is “+ (<20% = +)”.

Regarding DROSHA-001 (AVVEFLTSV), the “in vitro immunogenicity: donors” value is recorded as “++++ (>= 70% = ++++)” and the “in vitro immunogenicity: wells” value was “+ (<20% = +)”.

Consider “DUSP4-001 (FVFSFPVSV; listed as Homo sapiens)”, for which the “in vitro immunogenicity: donors” value is recorded as “++++ (>= 70% = ++++)” and the “in vitro immunogenicity: wells” value is “++ (20%-49% = ++)”.

In the case of “ERO-001 (LLLEILHEI; listed as Homo sapiens)”, the “in vitro immunogenicity: donors” value is “+++ (50%-69% = +++)” and the “in vitro immunogenicity: wells” value was “+ (<20% = +)”.

As for “FLFDGSANL (listed as Homo sapiens) [SEQ ID No. 13]”, the “in vitro immunogenicity: donors” value is “++ (20%-49% = ++)” and the “in vitro immunogenicity: wells” value is “+ (<20% = +)”.

Take “FLIPYAIML (listed as Homo sapiens) [SEQ ID No. 2]”: the “in vitro immunogenicity: donors” value is on record as “++++ (>= 70% = ++++)” and the “in vitro immunogenicity: wells” value was “+ (<20% = +)”.

Consider “FZD-001 (VLAPLFVYL; listed as Homo sapiens)”, for which the “in vitro immunogenicity: donors” value is “++++ (>= 70% = ++++)” and the “in vitro immunogenicity: wells” value is given as “+++ (50%-69% = +++)”.

Turning to “GBP5-001 (SLLSELQHA; listed as Homo sapiens)”, the “in vitro immunogenicity: donors” value is “++ (20%-49% = ++)” and the “in vitro immunogenicity: wells” value is on record as “+ (<20% = +)”.

Take GFPT2-001 (AIDGNNHEV): the “in vitro immunogenicity: donors” value was “++++ (>= 70% = ++++)” and the “in vitro immunogenicity: wells” value is on record as “+++ (50%-69% = +++)”.

As for “ILIDWLVQV (listed as Homo sapiens) [SEQ ID No. 117]”, the “in vitro immunogenicity: donors” value is “++++ (>= 70% = ++++)” and the “in vitro immunogenicity: wells” value was “++ (20%-49% = ++)”.

For “ILLTEQINL (listed as Homo sapiens) [SEQ ID No. 18]”, the “in vitro immunogenicity: donors” value is on record as “++ (20%-49% = ++)” and the “in vitro immunogenicity: wells” value is given as “+ (<20% = +)”.

For the substance “ILQDRLNQV (listed as Homo sapiens) [SEQ ID No. 152]”, the “in vitro immunogenicity: donors” value is “+++ (50%-69% = +++)” and the “in vitro immunogenicity: wells” value is recorded as “+ (<20% = +)”.

Take “IVAESLQQV (listed as Homo sapiens) [SEQ ID No. 105]”: the “in vitro immunogenicity: donors” value is given as “+ (<20% = +)” and the “in vitro immunogenicity: wells” value is “+ (<20% = +)”.

Regarding “IVDDITYNV (listed as Homo sapiens) [SEQ ID No. 119]”, the “in vitro immunogenicity: donors” value is given as “++++ (>= 70% = ++++)” and the “in vitro immunogenicity: wells” value is given as “++ (20%-49% = ++)”.

For the substance “IVDRTTTVV (listed as Homo sapiens) [SEQ ID No. 12]”, the “in vitro immunogenicity: donors” value is listed as “++++ (>= 70% = ++++)” and the “in vitro immunogenicity: wells” value is given as “++++ (>= 70% = ++++)”.

With “KIF26B-001 (TVAEVIQSV; listed as Homo sapiens)”, the “in vitro immunogenicity: donors” value is “+ (<20% = +)” and the “in vitro immunogenicity: wells” value is listed as “+ (<20% = +)”.

“KIFDEILVNA (listed as Homo sapiens) [SEQ ID No. 144]”: the “in vitro immunogenicity: donors” value is “++ (20%-49% = ++)” and the “in vitro immunogenicity: wells” value is “+ (<20% = +)”.

“KIIGIMEEV (listed as Homo sapiens) [SEQ ID No. 95]”: the “in vitro immunogenicity: donors” value is given as “++++ (>= 70% = ++++)” and the “in vitro immunogenicity: wells” value was “++++ (>= 70% = ++++)”.

On to “KILEDVVGV (listed as Homo sapiens) [SEQ ID No. 130]”, for which the “in vitro immunogenicity: donors” value is reported as “++++ (>= 70% = ++++)” and the “in vitro immunogenicity: wells” value is “++ (20%-49% = ++)”.

With “KIQEILTQV (listed as Homo sapiens) [SEQ ID No. 120]”, the “in vitro immunogenicity: donors” value was “++++ (>= 70% = ++++)” and the “in vitro immunogenicity: wells” value is “+ (<20% = +)”.
